The supplement of paper PMC10307832

Tests used:
Assay in all cases: relative viability (nuclei count vs DMSO), 5 days (fraction); higher = more cells survive
[1] = compound: O=c1ncccn1[C@@H]1O[C@H](CO)[C@@H](O)[C@H]1O [Zebularine] + C[C@]1(O)C[C@@H](c2nc(-c3ccc4ccc(-c5ccccc5)nc4c3)c3c(N)nccn32)C1 [Linsitinib] (partner 1 µM)
In short: (§1)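 Lung cancer cell lines in 1536-well plates were dosed by pin tool the day after seeding, either with one drug alone or with a fixed anchor-drug dose plus five library-drug doses (not always all listed) in √10 steps. After 5 days, cells were fixed and their nuclei stained in one step (final 0.05% Triton X-100, 1% formaldehyde, 1 ug/ml Hoechst), then counted on 4× images. Relative viability is the nuclei count in treated wells divided by that in vehicle wells. Values are medians of duplicate plates.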

[2] = compound: CC(C)CCN1c2nc(Nc3cc(F)c(O)c(F)c3)ncc2N(C)C(=O)C1C [BI-D1870] + CC1(C)CCC(c2ccc(Cl)cc2)=C(CN2CCN(c3ccc(C(=O)NS(=O)(=O)c4ccc(N[C@H](CCN5CCOCC5)CSc5ccccc5)c(S(=O)(=O)C(F)(F)F)c4)cc3)CC2)C1 [Navitoclax] (partner 0.5 µM)
In short: as §1

[3] = compound: CC(C)CCN1c2nc(Nc3cc(F)c(O)c(F)c3)ncc2N(C)C(=O)C1C [BI-D1870] + CC(=O)c1c(C)c2cnc(Nc3ccc(N4CCNCC4)cn3)nc2n(C2CCCC2)c1=O [Palbociclib] (partner 0.5 µM)
In short: as §1

[4] = compound: O=c1ncccn1[C@@H]1O[C@H](CO)[C@@H](O)[C@H]1O [Zebularine] + C[C@@H](Oc1cc(-c2cnn(C3CCNCC3)c2)cnc1N)c1c(Cl)ccc(F)c1Cl [Crizotinib] (partner 1 µM)
In short: as §1

Row | Cell Line | relative viability ([1]; first compound 1 µM) | relative viability ([1]; first compound 3.162 µM) | relative viability ([1]; first compound 10 µM) | relative viability ([1]; first compound 31.62 µM) | relative viability ([1]; first compound 100 µM) | relative viability ([2]; first compound 0.04 µM) | relative viability ([2]; first compound 0.1265 µM) | relative viability ([2]; first compound 0.4 µM) | relative viability ([2]; first compound 1.265 µM) | relative viability ([2]; first compound 4 µM) | relative viability ([3]; first compound 0.04 µM) | relative viability ([3]; first compound 0.1265 µM) | relative viability ([3]; first compound 0.4 µM) | relative viability ([3]; first compound 1.265 µM) | relative viability ([3]; first compound 4 µM) | relative viability ([4]; first compound 1 µM) | relative viability ([4]; first compound 3.162 µM) | relative viability ([4]; first compound 10 µM) | relative viability ([4]; first compound 31.62 µM) | relative viability ([4]; first compound 100 µM)
1 | NCI-H1666 | 0.748 | 0.862 | 0.675 | 0.804 | 0.562 | 0.89 | 0.822 | 0.81 | 0.933 | 0.851 | 0.665 | 0.591 | 0.661 | 0.63 | 0.619 | 1.01 | 0.783 | 1.05 | 1.02 | 0.596
2 | NCI-H1734 | 0.917 | 0.87 | 0.526 | 0.532 | 0.333 | 0.875 | 0.757 | 0.842 | 0.849 | 0.81 | 0.334 | 0.302 | 0.337 | 0.345 | 0.309 | 0.71 | 0.696 | 0.391 | 0.384 | 0.295
3 | NCI-H1755 | 0.722 | 1.01 | 0.844 | 1 | 0.506 | 1.06 | 0.945 | 0.995 | 1.07 | 1.01 | 0.432 | 0.413 | 0.438 | 0.481 | 0.435 | 1.03 | 0.872 | 0.612 | 0.864 | 0.466
4 | NCI-H1792 | 0.571 | 0.441 | 0.541 | 0.267 | 0.296 | 0.655 | 0.666 | 0.597 | 0.791 | 0.608 | 0.635 | 0.613 | 0.679 | 0.719 | 0.479 | 1.06 | 0.876 | 0.381 | 0.386 | 0.339
5 | NCI-H1915 | 1.09 | 1.08 | 1.07 | 1.09 | 0.94 | 0.822 | 0.763 | 0.803 | 0.815 | 0.746 | 0.577 | 0.504 | 0.469 | 0.451 | 0.376 | 1.18 | 0.911 | 0.649 | 0.926 | 0.698
6 | NCI-H1944 | 1.34 | 1.14 | 0.979 | 1.19 | 0.784 | 1.01 | 1.02 | 0.988 | 1.09 | 1.06 | 0.335 | 0.308 | 0.308 | 0.332 | 0.33 | 1.21 | 1.06 | 0.681 | 0.87 | 0.666
7 | NCI-H1975 | 1.01 | 0.861 | 0.582 | 0.456 | 0.271 | 1.12 | 1.22 | 1.14 | 1.06 | 0.54 | 0.785 | 0.521 | 0.552 | 0.623 | 0.456 | 1.02 | 1.07 | 0.513 | 0.317 | 0.265
8 | NCI-H1993 | 0.775 | 0.637 |  | 0.795 | 0.657 | 0.91 | 0.888 | 0.988 | 1.07 | 0.73 | 0.642 | 0.583 | 0.717 | 0.691 | 0.573 | 0.732 | 0.801 |  | 0.862 | 0.646
9 | NCI-H2009 | 1.17 | 1.15 | 1.03 | 0.984 | 0.386 | 1.22 | 1.12 | 1.15 | 1.09 | 0.865 | 0.22 | 0.169 | 0.229 | 0.179 | 0.148 | 1.07 | 0.962 | 0.817 | 0.681 | 0.311
10 | NCI-H2023 | 0.664 | 0.689 | 0.604 | 0.63 | 0.303 | 1.03 | 0.811 | 1.01 | 0.864 | 0.894 | 0.424 | 0.279 | 0.284 | 0.3 | 0.207 | 0.807 | 0.569 | 0.611 | 0.389 | 0.201
11 | NCI-H2085 | 1.18 | 0.878 | 0.76 | 0.887 | 0.428 | 1.14 | 1.07 | 1.11 | 1.06 | 0.865 | 0.453 | 0.475 | 0.474 | 0.456 | 0.355 | 0.986 | 0.814 | 0.827 | 0.804 | 0.488
12 | NCI-H2087 | 1.11 | 1.09 | 0.501 | 0.67 | 0.29 | 1.14 | 1.01 | 1.06 | 1.09 | 0.802 | 0.239 | 0.2 | 0.265 | 0.196 | 0.208 | 1.07 | 0.803 | 0.551 | 0.654 | 0.197
13 | NCI-H2126 | 0.743 | 0.644 | 0.668 | 0.624 | 0.478 | 0.876 | 0.829 | 0.853 | 0.904 | 0.771 | 0.369 | 0.4 | 0.38 | 0.33 | 0.357 | 1.11 | 0.987 | 0.958 | 0.804 | 0.503
14 | NCI-H2228 | 0.616 | 0.666 | 0.514 | 0.509 | 0.409 | 0.94 | 0.811 | 0.819 | 0.823 | 0.359 | 0.97 | 0.771 | 0.688 | 0.713 | 0.627 | 0.462 | 0.38 | 0.42 | 0.521 | 0.37
15 | NCI-H2347 | 1.04 | 0.99 | 0.854 | 0.724 | 0.478 | 0.778 | 0.914 | 0.617 | 0.975 | 0.54 | 0.385 | 0.426 | 0.407 | 0.453 | 0.4 | 0.682 | 0.676 | 0.618 | 0.516 | 0.381
16 | NCI-H2405 | 0.891 | 0.918 | 0.873 | 0.77 | 0.643 | 1.17 | 0.774 | 0.977 | 0.844 | 0.671 | 0.58 | 0.525 | 0.523 | 0.565 | 0.49 | 0.845 | 0.825 | 0.621 | 0.846 | 0.56
